Patent US12702665B2, “ExoVII inhibitor and quinolone antibiotic combination useful for treating bacterial infection” (The United States of America, As Represented by the …, priority 2020, dated 2026)

Columns and labels:
ExoVII = molecular target: T1, ExoVII (Escherichia coli, UniProt P04994); test: In-vitro ExoVII cleavage assay (IC50 determination); type: biochemical
T1 construct: purchased ThermoFisher or NEB
Method: FIG. 13A, FIG. 13B, FIG. 13C, and FIG. 13D. CPID is a specific ExoVII inhibitor. FIG. 13A. […] FIG. 13B. […] FIG. 13C. […] Representative gel image and quantification are shown. IC50 value was averaged from 5 independent experiments. FIG. 13D. CPID is not toxic to HEK293 or MEF cells as determined by relative confluency of seeded cells after 72-hour treatment at the indicated CPID concentration.
ExoVII reactions were incubated at 37° C. for 1 or 2 hrs followed by inactivation at 55° C. for 30 mins before terminated by addition of 20 μL formamide gel loading buffer (96% (v/v) formamide, 10 mM ethylenediaminetetraacetic acid, 1% (w/v) xylene cyanol and 1% (w/v) bromophenol blue). For IC50 determination, ExoVII was preincubated with the inhibitor at 25° C. for 5 mins before addition of equal volume of DNA solution and the reaction continued for another 20-30 mins. The 10 μL reaction contained 0.025 U/μL ExoVII, 20-100 nM internally ratio-labeled DNA substrate, and indicated inhibitor concentration in buffer with 50 mM potassium acetate, 20 mM trisacetate (pH=7.9), 10 mM magnesium acetate, 1 mM DTT and 10% (v/v) DMSO. The percentage of products in the presence of inhibitor was normalized to that of control reaction without any inhibitors, and resulting plot was fitted to a nonlinear regression function in Prism. DNA gyrase was purified as previously described.

WT-pgyrA-S83L = test: Synergy with ciprofloxacin in quinolone-resistant strain (OD600 growth); type: cell-based, E. coli
Method: (§1) OD600 was measured at the end of 4-hr incubation at 37° C. shaking at 225 rpm and cell densities were normalized to samples without any drug treatment. Toxicity of compounds were measured by treating either HEK293 or MEF (1000 cells in 96-well plates seeded 24-hr prior) with indicated concentrations of ExoVII inhibitor for 72 hours. The samples were imaged with a Cytation 5 (BioTek) and the confluency of each well were normalized to untreated samples.

ΔxseA-pgyrA-S83L = test: Synergy with ciprofloxacin in quinolone-resistant ExoVII-deficient strain (OD600 growth); type: cell-based, E. coli
Method: as §1

ΔxseB-pgyrA-S83L = test: as above; type: cell-based, E. coli
Method: as §1

[1] = test system: Staphylococcus aureus strain HG003; test: Synergy with ciprofloxacin in Staphylococcus aureus cultures (OD600 growth); type: cell-based; conditions: gram-positive
Method: as §1

[2] = test system: E. coli strains carrying the gyrA-S83L mutation; test: MIC of ciprofloxacin (MIC test strips), quinolone-resistant gyrA-S83L strains; type: cell-based
[3] = test system: E. coli pgyrAHis transformants deficient in ExoVII; test: Spotting assay on LB plates containing quinolones; type: cell-based; conditions: ΔxseA or ΔxseB pgyrAHis transformants vs wild-type
Excerpt: FIG. 8A, FIG. 8B, and FIG. 8C. Expression of a functional GyrAHis has no impact on sensitivities of E. coli strains to quinolones. FIG. 8A. Transformants of a single-copy plasmid bearing the gyrA gene including its endogenous promoter and a C-terminal His-tag (pgyrAHis) were established in either the wild-type, ΔxseA or ΔxseB strains. […] The asterisk denotes a non-specific band. FIG. 8B. Immunoblotting of the same transformants as in FIG. 8A, probed with anti-GyrA antibody (Abcam). FIG. 8C. […] Two technical replicates are shown.
Cell killing assays were carried out as previously described. Briefly, transformants harboring pBAD/Thio, pYtopA or pYtopA-R327W were grown in LB with 2% glucose and 50 μg/mL carbenicillin overnight and diluted 1:100 in LB with 50 μg/mL carbenicillin and grown to OD600 of 0.4. YTop1 or YTop1-R327W were induced by addition of 0.2% arabinose for 0.5-2 hrs. Post-induction cultures were then serially diluted and spotted onto LB plates with 2% glucose and 50 μg/mL carbenicillin and incubated at 37° C. overnight. Alternatively, exponentially growing transformants were serially diluted as indicated and spotted on LB plates containing 50 μg/mL carbenicillin and indicated concentrations of arabinose and incubated at 37° C. overnight.

T1 sequence (P04994 whole entry): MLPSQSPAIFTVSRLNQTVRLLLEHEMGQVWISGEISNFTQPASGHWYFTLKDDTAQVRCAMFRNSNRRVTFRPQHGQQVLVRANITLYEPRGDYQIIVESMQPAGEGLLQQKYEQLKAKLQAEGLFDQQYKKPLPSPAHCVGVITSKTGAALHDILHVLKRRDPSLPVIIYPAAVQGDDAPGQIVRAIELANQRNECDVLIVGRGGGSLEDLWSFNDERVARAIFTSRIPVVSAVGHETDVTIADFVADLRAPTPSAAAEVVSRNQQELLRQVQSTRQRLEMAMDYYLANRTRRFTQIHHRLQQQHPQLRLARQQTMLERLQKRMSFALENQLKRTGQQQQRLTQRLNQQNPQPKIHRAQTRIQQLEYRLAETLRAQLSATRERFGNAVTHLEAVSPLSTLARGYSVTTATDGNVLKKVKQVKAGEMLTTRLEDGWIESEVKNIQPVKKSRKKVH
T1 sequence (P0A8G9 whole entry, further chain): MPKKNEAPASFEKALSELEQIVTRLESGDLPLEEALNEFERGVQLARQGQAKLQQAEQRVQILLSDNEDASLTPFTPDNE

Compound	IC50 (ExoVII) [nM]	Synergy with ciprofloxacin (WT-pgyrA-S83L)	Synergy with ciprofloxacin (ΔxseA-pgyrA-S83L)	Synergy with ciprofloxacin (ΔxseB-pgyrA-S83L)	Synergy with ciprofloxacin [1]	Decrease in ciprofloxacin MIC on inactivating either subunit of ExoVII ([2]; gyrA-S83L background)	Increase in ciprofloxacin MIC by gyrA-S83L ([2]; gyrA-S83L vs wild-type gyrA) [fold]	Sensitivity of ExoVII-deficient transformants to quinolones [3]
O=C1Cc2ccc(-c3cccc(Cl)c3)cc2C(=O)N1 [CPID, 7-(3-chlorophenyl)-1,3(2H,4H)-Isoquinolinedione]	2430	synergistic	not synergistic	not synergistic	clear synergy	–	–	–
O=C(O)c1cn(C2CC2)c2cc(N3CCNCC3)c(F)cc2c1=O [ciprofloxacin]	–	–	–	–	–	~ 2 fold	10	hypersensitivity
CCn1cc(C(=O)O)c(=O)c2ccc(C)nc21 [nalidixic acid]	–	–	–	–	–	–	–	hypersensitivity
